One compound from patent US20260035339A1, “TETRAHYDRONAPHTHALENE DERIVATIVE” (ATRANSEN PHARMA LTD., priority 2022, published 2026) can be followed below.

Test [1] concerns Human breast cancer cells MCF7. The test is described as follows: BNCT-enhancing effect by L-BPA confinement using cultured cells (colony formation after neutron irradiation). Format: cell-based. Conditions: MCF7 loaded with 100 μM L-[10B]BPA, not treated with Example 1-1; neutron rays 5 MW for 4 minutes. How it is done:
Human breast cancer cells MCF7 were plate-cultured in an RPMI medium for 48 hours, then replaced with an RPMI medium containing 100 μM of L-[10B]BPA, and cultured for 15 minutes to allow the L-[10B]BPA to be taken up in the cells. After washing with HBSS, the cells were cultured in an RPMI medium for 60 minutes, and after further washing with HBSS, the cells were peeled off and stored in HBSS at room temperature for 1.5 hours ((−) in FIG. 3A). L-BPA was taken up in the cells, washed with HBSS and then cultured in an RPMI medium containing the compound of Example 1-1 (10 μM) obtained in the present invention for 60 minutes, and after further washing with HBSS, the cells were peeled off and stored in HBSS at room temperature for 1.5 hours ((+) in FIG. 3A). The cells were cultured in an RPMI medium containing no L-[10B]BPA for 15 minutes, and after washing with HBSS, the cells were peeled off and stored in HBSS at room temperature for 1.5 hours ((No BPA Hot control) in FIG. 3A). These three cell samples were irradiated with neutron rays (5 MW for 4 minutes). After irradiation, in order to measure viable cells, the cells were plate-cultured and the number of colonies generated after 2 weeks was measured. The number of viable cells was evaluated as surviving fraction (%) (FIG. 3A).

The subject of test [2] is Mouse triple negative breast cancer cells 4T1 and mouse colorectal cancer cells CT26. Description: BNCT-enhancing effect using mouse allograft tumor model. The format is in vivo, BALB/c mice. The conditions noted are these: Group 3: 400 mg/kg L-[10B]BPA i.v., solvent instead of Example 1-45; neutron rays 5 MW for 30 minutes. The method, then:
Mouse triple negative breast cancer cells 4T1 and mouse colorectal cancer cells CT26 were plate-cultured and then transplanted subcutaneously into the lower limbs of BALB/c mice. After 1 week, 400 mg/kg of L-[10B]BPA or a solvent as a control was intravenously administered through the tail vein. In Group 1, the compound of Example 1-45 was administered intravenously at a dose of 25 mg/kg after 1 hour and 1.5 hours from the administration of L-[10B]BPA. In Group 2, the solvent was administered instead of L-[10B]BPA, and after 1 hour and 1.5 hours, the compound of Example 1-45 obtained in the present invention was administered intravenously at a dose of 25 mg/kg. In Group 3, the solvent was administered intravenously instead of the compound of Example 1-45 after 1 hour and 1.5 hours from the administration of L-[10B]BPA. For Groups 1, 2, and 3, the lower limbs were irradiated with neutron rays under anesthesia after 2.5 hours from L-[10B]BPA administration or solvent administration as the control (5 MW for 30 minutes). The tumors were excised after 11 days from irradiation and the volumes thereof were compared.

For `N[C@@H](Cc1ccc(B(O)O)cc1)C(=O)O` [L-[10B]BPA, L-boronophenylalanine, reference compound], in test [1], the “cell death caused by neutron irradiation, L-[10B]BPA without compound treatment” value is “about No BPA Hot control”. The “BNCT effect of L-[10B]BPA without compound (tumor volume 11 days after irradiation)” value in test [2] is reported as “no BNCT effect was obtained”.
